The text below walks through data of ChEMBL document CHEMBL1649244, “Horizontal transfer of tetracycline resistance among Chlamydia spp. in vitro” (2009).

Each structure is given as a SMILES string. In brackets after ≈: the same amount, converted by molar mass.

Common to all, as to format: functional
Assay [1] deals with Chlamydia trachomatis. The experiment in a line: Antimicrobial activity against Chlamydia trachomatis J/6276/tetR harboring tet(C) allele.
Assay [2] relates to Chlamydia muridarum. The experiment in a line: Antimicrobial activity against Chlamydia muridarum MoPn/tetR14 harboring tet(C) allele.
The test system of assay [3] is Chlamydia trachomatis. The experiment in a line: Antimicrobial activity against Chlamydia trachomatis J/6276/oflR-rifR1 harboring ompA and rpoB genes.
In assay [4] the test system is Chlamydia muridarum. The experiment in a line: Antimicrobial activity against Chlamydia muridarum MoPn/oflR harboring ompA gene.
Assay [5] deals with Chlamydia suis. The experiment in a line: Antimicrobial activity against Chlamydia suis R19/tetR harboring tet(C) allele.
Assay [6] deals with Chlamydia muridarum. The experiment in a line: Antimicrobial activity against Chlamydia muridarum MoPn/rifRoflR harboring ompA and rpoB genes.
In assay [7] the test system is Chlamydia trachomatis. The experiment in a line: Antimicrobial activity against Chlamydia trachomatis L2/tetR13 harboring tet(C) allele.
In assay [8] the test system is Chlamydia trachomatis. The experiment in a line: Antimicrobial activity against Chlamydia trachomatis J/6276/rifR harboring ompA and rpoB genes.
Assay [9] deals with Chlamydia muridarum. The experiment in a line: Antimicrobial activity against Chlamydia muridarum MoPn/tetR1 harboring tet(C) allele.
Assay [10] has as its system Chlamydia trachomatis. The experiment in a line: Antimicrobial activity against Chlamydia trachomatis F/70/rifR-tetR harboring rpoB gene and tet(C) allele.
For a further assay, the system named is Chlamydophila caviae. The experiment in a line: Antimicrobial activity against Chlamydophila caviae GPIC/rifR harboring rpoB gene. Particulars: Chlamydia caviae.
The subject of assay [11] is Chlamydia trachomatis. The experiment in a line: Antimicrobial activity against Chlamydia trachomatis L2/tetR1 harboring tet(C) allele.
Assay [12] deals with Chlamydia trachomatis. The experiment in a line: Antimicrobial activity against Chlamydia trachomatis L2/oflR-rifR2 harboring […] and rpoB genes.
Assay [13] has as its system Chlamydia suis. The experiment in a line: Antimicrobial activity against Chlamydia suis S45/rifR harboring rpoB gene.
In assay [14] the test system is Chlamydia trachomatis. The experiment in a line: Antimicrobial activity against Chlamydia trachomatis L2/oflR harboring ompA gene.
Assay [15] relates to Chlamydia trachomatis. The experiment in a line: Antimicrobial activity against Chlamydia trachomatis J/6276/oflR-rifR2 harboring ompA and rpoB genes.
Assay [16] relates to Chlamydia trachomatis. The experiment in a line: Antimicrobial activity against Chlamydia trachomatis L2/oflR-rifR1 harboring ompA and rpoB genes.
Assay [17] relates to Chlamydia muridarum. The experiment in a line: Antimicrobial activity against Chlamydia muridarum MoPn/oflR-rifR harboring ompA and rpoB genes.
Assay [18] deals with Chlamydia trachomatis. The experiment in a line: Antimicrobial activity against Chlamydia trachomatis F/70/rifR harboring rpoB gene.

On to `CC1COc2c(N3CCN(C)CC3)c(F)cc3c(=O)c(C(=O)O)cn1c23` (configuration not stated) [OFLOXACIN], for which the MIC in the assay on Chlamydia trachomatis [1] was 0.5 µg/mL (≈ 1.38 µM); in the assay on Chlamydia muridarum [2] it was 32 µg/mL (≈ 88.6 µM); against Chlamydia trachomatis [3], 16 µg/mL (≈ 44.3 µM); with Chlamydia muridarum [4], 32 µg/mL (≈ 88.6 µM); against Chlamydia suis [5], 0.5 µg/mL (≈ 1.38 µM); against Chlamydia muridarum [6], 32 µg/mL (≈ 88.6 µM). The minimum inhibitory concentration (MIC) against Chlamydia trachomatis [7] was found to be 16 µg/mL (≈ 44.3 µM); in the assay on Chlamydia trachomatis [8] it was 0.5 µg/mL (≈ 1.38 µM); against Chlamydia muridarum [9] it was 32 µg/mL (≈ 88.6 µM); with Chlamydia trachomatis [10], 0.5 µg/mL (≈ 1.38 µM); in the assay on Chlamydophila caviae it was 0.5 µg/mL (≈ 1.38 µM); against Chlamydia trachomatis [11] it was 16 µg/mL (≈ 44.3 µM). Further, the minimum inhibitory concentration (MIC) in the assay with Chlamydia trachomatis [12] worked out at 16 µg/mL (≈ 44.3 µM); in the assay with Chlamydia suis [13], 0.5 µg/mL (≈ 1.38 µM); with Chlamydia trachomatis [14] it was 16 µg/mL (≈ 44.3 µM); in the assay on Chlamydia trachomatis [15], 32 µg/mL (≈ 88.6 µM); with Chlamydia trachomatis [16], 16 µg/mL (≈ 44.3 µM); in the assay on Chlamydia muridarum [17], 32 µg/mL (≈ 88.6 µM). This compound yielded a minimal inhibitory concentration (MIC) against Chlamydia trachomatis [18] of 0.5 µg/mL (≈ 1.38 µM).

As for `CO[C@H]1/C=C/O[C@@]2(C)Oc3c(C)c(O)c4c(O)c(c(/C=N/N5CCN(C)CC5)c(O)c4c3C2=O)NC(=O)/C(C)=C\C=C\[C@H](C)[C@H](O)[C@@H](C)[C@@H](O)[C@@H](C)[C@H](OC(C)=O)[C@@H]1C` [RIFAMPIN], the MIC in the assay on Chlamydia trachomatis [1] worked out at 8 µg/mL (≈ 9.72 µM); in the assay with Chlamydia muridarum [2], 128 µg/mL (≈ 156 µM); with Chlamydia trachomatis [3], 8 µg/mL (≈ 9.72 µM); with Chlamydia muridarum [4], 0.008 µg/mL (≈ 0.00972 µM); against Chlamydia suis [5] it was 0.004 µg/mL (≈ 0.00486 µM); against Chlamydia muridarum [6] it was 128 µg/mL (≈ 156 µM). The MIC came out at 0.004 µg/mL (≈ 0.00486 µM) in the assay with Chlamydia trachomatis [7]; 0.004 µg/mL (≈ 0.00486 µM) against Chlamydia trachomatis [8]; 0.008 µg/mL (≈ 0.00972 µM) against Chlamydia muridarum [9]; 32 µg/mL (≈ 38.9 µM) with Chlamydia trachomatis [10]; 16 µg/mL (≈ 19.4 µM) in the assay on Chlamydophila caviae; 128 µg/mL (≈ 156 µM) with Chlamydia trachomatis [11]. For the same compound, the minimal inhibitory concentration (MIC) amounted to 0.25 µg/mL (≈ 0.304 µM) in the assay with Chlamydia trachomatis [12]; 0.25 µg/mL (≈ 0.304 µM) in the assay with Chlamydia suis [13]; 0.004 µg/mL (≈ 0.00486 µM) against Chlamydia trachomatis [14]; 8 µg/mL (≈ 9.72 µM) with Chlamydia trachomatis [15]; 128 µg/mL (≈ 156 µM) in the assay with Chlamydia trachomatis [16]; 0.25 µg/mL (≈ 0.304 µM) in the assay with Chlamydia muridarum [17]. The same compound had an MIC against Chlamydia trachomatis [18] of 32 µg/mL (≈ 38.9 µM).

With `CN(C)[C@@H]1C(O)=C(C(N)=O)C(=O)[C@@]2(O)C(O)=C3C(=O)c4c(O)cccc4[C@@](C)(O)[C@H]3C[C@@H]12` [TETRACYCLINE], the MIC against Chlamydia trachomatis [1] was 8 µg/mL (≈ 18 µM); against Chlamydia muridarum [2] it was 8 µg/mL (≈ 18 µM); in the assay on Chlamydia trachomatis [3], 0.032 µg/mL (≈ 0.072 µM); against Chlamydia muridarum [4] it was 0.032 µg/mL (≈ 0.072 µM); in the assay with Chlamydia suis [5], 8 µg/mL (≈ 18 µM); against Chlamydia muridarum [6], 0.008 µg/mL (≈ 0.018 µM). For the same compound, the minimum inhibitory concentration (MIC) in the assay with Chlamydia trachomatis [7] was 8 µg/mL (≈ 18 µM); with Chlamydia trachomatis [8], 0.032 µg/mL (≈ 0.072 µM); against Chlamydia muridarum [9], 8 µg/mL (≈ 18 µM); against Chlamydia trachomatis [10], 8 µg/mL (≈ 18 µM); against Chlamydophila caviae it was 0.032 µg/mL (≈ 0.072 µM); with Chlamydia trachomatis [11], 8 µg/mL (≈ 18 µM). Further, the minimal inhibitory concentration (MIC) against Chlamydia trachomatis [12] is 0.032 µg/mL (≈ 0.072 µM); with Chlamydia suis [13] it was 0.032 µg/mL (≈ 0.072 µM); in the assay with Chlamydia trachomatis [14] it was 0.032 µg/mL (≈ 0.072 µM); in the assay on Chlamydia trachomatis [15] it was 0.032 µg/mL (≈ 0.072 µM); in the assay on Chlamydia trachomatis [16] it was 0.008 µg/mL (≈ 0.018 µM); in the assay on Chlamydia muridarum [17] it was 0.032 µg/mL (≈ 0.072 µM). Further, the MIC against Chlamydia trachomatis [18] stood at 0.032 µg/mL (≈ 0.072 µM).
